In US20250127800A1, “PYRIMIDINE OR PYRIDINE DERIVATIVE AND MEDICINAL USE THEREOF” (SIGNET THERAPEUTICS INC., priority 2021, published 2025):

What was measured:
FAK [1] = target: T1, FAK (Homo sapiens (Human), UniProt Q05397); assay: Time-dependent FAK kinase inhibition activity test; type: biochemical
SNU-668 cells = assay: Cell proliferation inhibition, SNU-668 (CELL TITER-GLO); type: cell-based; conditions: Homo sapiens, SNU668, 96 h; SNU-668, 4 days
Procedure: (§1) • a. SNU-668 cells (catalog number: 00668, KCLB) or NUGC4 cells (catalog number: 0834, JCRB) were allowed to grow to 70%-80% confluence, the supernatant of the culture medium was pipetitted off, rinsed once with PBS and then pipetitted off; • b. To a 10 cm dish was added 1 mL of 0.25% trypsin, votexed to homogenity and then place into incubator for digestion for 2-3 min; • c. The culture dish is removed from the incubator added with 2-3 mL complete culture medium to terminate the digestion, pipetitted into a 15 mL centrifuge tube, and then centrifuged in centrifuge at 1000 rpm for 5 minutes; • d. The supernatant was pipetitted off, and the cells were resuspended in 1 mL of complete culture medium, and then counted; • e. 1000 cells were plated into each well of 96-well plate, and then cultured overnight in a cell incubator, 2) Cell Administration with Compounds • a. Compounds to be tested were dissolved and votexed to homogeneity; • b. Each compound was serielly diluted in 1:3 ratio from 1 mM stock solution to 9 gradient concentrations; • c. The plate seeded with cells was taken out from the incubator, pipetitted off culture medium, and then added slowly in each well with 100 μL fresh culture medium by multi-channel pipette. Wells are labeled by corresponding compounds and concentrations, and then gently added with 100 μL compound-containing culture medium along the well wall by multi-channel pipette; • d. After the addition to all wells, the plate was gently shaken to allow homogeneous spread of the compound, and then put back to the incubator, with time recorded;
(§2) 4 days after the addition of compounds, the culture medium was removed and mixed at 100 μL from each well with cell titer-glo testing liquid in 1:1 ratio. The mixture was incubated with shaking at room temperature for 10 min and then counted with Plate reader.

[2] = test system: activated YAP (non-p-YAP); assay: Western Blot of activated YAP in DGC organoid model; type: cell-based; conditions: 48 hours, dose-dependent
Procedure: (§3) Experimental procedures: Organoids were amplified in 6-well plates (7 Matrigel aliquots per well) for 2-3 days prior to evaluation. After passage, 1000 cells were inoculated in 5 μl Matrigel aliquot into each well containing 100 μl 50% L-WRN medium in a 96-well plate. Organoids were cultured for 24 hours, followed by addition of the compounds. Compounds were dissolved in DMSO as stock solution (with a final concentration of […]), which was then diluted with DMSO to 1000× concentration of the testing concentration. Culture medium was added to the stock solution to dilute to the testing concentration. The diluted solution was added to the culture plate. Once compound was added, culture medium was no longer added, and no further compound added. After the organoids were cultured for a specified number of days, the effects of compounds were evaluated by the following three methods, each using DMSO as negative control.
(§4) 2. After cell culture in accordance with the above procedure and culture with compounds for 48 hours, the cells were lysed, and proteins were extracted and tested by Western Blot. After gel imaging, gray values of protein bands were analyzed to investigate the effects of the compounds on phosphorylated FAK and activated YAP in the organoid model. (For detailed methods, please refer to Haisheng Zhang, Cancer Discovery, 2020).

NUGC4 cells = assay: Cell proliferation inhibition, NUGC4 (CELL TITER-GLO); type: cell-based; conditions: Homo sapiens, NUGC-4, 96 h; NUGC4, 4 days
Procedure: as §1, §2

FAK [3] = target: T1, FAK; assay: In vitro enzymatic inhibitory activity, FAK kinase (HTRF KinEASE-TK); conditions: FAK kinase, enzyme pre-incubation 15 minutes at 25° C.
FAK (p-FAK 397) = assay: Western Blot of phosphorylated FAK in DGC organoid model; type: cell-based; conditions: 48 hours, dose-dependent
Procedure: as §3, §4

[4] = test system: diffuse-type gastric cancer (DGC) organoid; assay: Cell morphology in diffuse-type gastric cancer (DGC) organoid model; type: cell-based; conditions: 500 nM compound
Procedure: as §3
1. There was a difference in cell morphology between normal cells and the diffuse-type gastric cancer (DGC) organoid model. Normal organoids have hollow spheroid shape, while organoids of diffuse-type gastric cancer have solid grape-like irregular shape. Therefore, the observations of the effect of drugs on cell morphology may be one of the important characteristics for evaluating drug efficacy.

[5] = In vivo pharmacokinetic evaluation in SD rats, gavage; conditions: rat, plasma, po, male SD rats, 5 mg/kg
Procedure: Three male SD rats were administered with compounds in a single dose of 5 mg/kg or 3 mg/kg by gavage, and blood samples were collected before administration and at 0.25, 0.5, 1, 2, 4, 6, 8, and 24 h after administration.
Preparation of solutions of compounds to be dosed at 5 mg/kg: 5.5 mg compound (converted based on purity) was accurately weighed and added to 0.55 mL of DMSO. Clear solutions were obtained after stirring and sonication. 0.5 mL of each of the above solutions was added with 1 mL of Solutol, stirred for 1 minute; and then added with 8.5 mL of physiological saline and stirred for 1 minute, to obtain a clear solution at 0.5 mg/mL concentration.
Preparation of a solution of compounds to be dosed at 3 mg/kg: 3.6 mg compound (converted according to purity) was accurately weighed and added to 0.6 mL of DMSO. Clear solutions were obtained after stirring and sonication. 0.5 mL of each of the above solutions was added with 1 mL of Solutol and stirred for 1 minute; and then added with 8.5 mL of physiological saline and stirred for 1 minute, to obtain a clear solution at 0.3 mg/mL concentration.
Rats were administered the formulations prepared in step 2 by gavage at a dose of 10 mL/kg. The rats were fasted overnight before the administration and resumed feeding 4 hours after administration. Throughout the entire experiment, the animals were free to access drinking water.
The plasma concentration was measured using LC-MS/MS method.

YAP (non-p-YAP) = YAP (non-p-YAP) (Homo sapiens (Human), UniProt P46937); assay: Western blot of YAP activity in SNU-668 cell line model; type: cell-based; conditions: SNU668, 24 hours
Procedure: • a. SNU-668 cells (catalog number: 00668, KCLB) were allowed to grow to 70%-80% confluence, the supernatant of the culture medium was pipetitted off, rinsed once with PBS and then pipetitted off; • b. To a 10 cm dish was added 2 mL trypsin, and digested in an incubator for 3-5 min; • c. The culture dish is removed from the incubator added with 5 mL 1640 medium (containing 10% FBS) to terminate the digestion, pipetitted into a 15 mL centrifuge tube, and then centrifuged in centrifuge at 1000 rpm for 5 minutes; • d. The supernatant was pipetitted off, added with 5 mL 1640 medium (containing 10% FBS). the cells were resuspended thoroughly and mix well, then counted; • e. 1.5×10^5 cells were seeded into each well of 12-well plate, and then cultured in a cell incubator for 24 h. 2) Cell Treatment with Compounds • a. Stock solutions of the compounds to be tested (1 mM) were diluted in DMSO, and blown and nixed several times to homogeneity; • b. The plate seeded with cells was taken out from the incubator, gently added in wells with 1 ul 1 mM stocks (1000× diluted) along the well wall, and then gently shaken immediately to homogeneity; • c. After the addition to all wells, the plate was gently shaken to allow homogeneous spread of the compound, and then put back to the incubator, with time recorded; Samples were collected after 24 hours.
• a. […]

T1 sequence (Q05397 whole entry, species assumed): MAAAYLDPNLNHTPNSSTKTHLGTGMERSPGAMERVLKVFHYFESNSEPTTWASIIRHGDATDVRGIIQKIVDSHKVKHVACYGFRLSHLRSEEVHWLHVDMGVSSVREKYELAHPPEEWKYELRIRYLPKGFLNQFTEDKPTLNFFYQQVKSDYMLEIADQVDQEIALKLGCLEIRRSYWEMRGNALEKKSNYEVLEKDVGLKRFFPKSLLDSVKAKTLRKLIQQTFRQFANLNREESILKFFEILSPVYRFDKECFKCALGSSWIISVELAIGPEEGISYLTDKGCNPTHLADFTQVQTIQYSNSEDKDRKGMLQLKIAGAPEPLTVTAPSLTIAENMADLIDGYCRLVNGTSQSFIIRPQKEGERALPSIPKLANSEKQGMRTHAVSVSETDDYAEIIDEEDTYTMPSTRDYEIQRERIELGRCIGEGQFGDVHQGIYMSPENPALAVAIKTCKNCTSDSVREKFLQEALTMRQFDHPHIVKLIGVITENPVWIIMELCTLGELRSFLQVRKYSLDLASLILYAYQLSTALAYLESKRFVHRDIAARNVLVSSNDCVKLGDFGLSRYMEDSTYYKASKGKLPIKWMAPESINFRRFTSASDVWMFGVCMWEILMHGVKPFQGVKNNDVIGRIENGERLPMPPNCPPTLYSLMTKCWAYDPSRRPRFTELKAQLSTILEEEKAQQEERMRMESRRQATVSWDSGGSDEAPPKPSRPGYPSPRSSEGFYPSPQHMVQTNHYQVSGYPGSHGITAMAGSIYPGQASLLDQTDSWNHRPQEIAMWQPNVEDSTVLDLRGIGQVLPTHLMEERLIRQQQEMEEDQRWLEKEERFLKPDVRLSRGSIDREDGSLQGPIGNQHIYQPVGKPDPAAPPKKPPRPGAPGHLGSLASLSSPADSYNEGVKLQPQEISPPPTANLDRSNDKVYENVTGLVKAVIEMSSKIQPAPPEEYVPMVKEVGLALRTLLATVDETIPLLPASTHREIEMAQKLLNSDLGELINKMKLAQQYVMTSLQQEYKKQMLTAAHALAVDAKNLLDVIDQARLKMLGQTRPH

Compound | IC50 (SNU-668 cells) | inhibition of activated YAP (non-p-YAP) [2] | IC50 (NUGC4 cells) | IC50 (FAK [3]) | inhibition of phosphorylation of FAK (p-FAK 397) (FAK (p-FAK 397)) | also measured
C=CC(=O)N1CCCC(c2cccc(NCc3ccc(Nc4ncc(C(F)(F)F)c(Nc5ccccc5C(=O)NC)n4)cc3)c2)C1 (centres unmarked) [Compound 6, 2-((2-((4-(((3-(1-acryloylpiperidin-3-yl)phenyl)amino)methyl)phenyl)amino)-5-(trifluoromethyl)pyrimidin-4-yl)amino)-N-methylbenzamide] | 0.05 µM | inhibit the activated YAP (non-p-YAP) | 0.02 µM | 0.00268 µM | can inhibit the phosphorylation of FAK (p-FAK 397) | IC50 (FAK [1]; enzyme pre-incubation 60 minutes at 25° C.): 0.000663 µM; effective inhibition time on the kinase activity of FAK (FAK [1]; pre-incubation 0, 15 and 60 minutes, compared to defactinib): longer effective inhibition time
C=CC(=O)N1CCCC1c1ccc(NCc2ccc(Nc3ncc(C(F)(F)F)c(Nc4ccccc4C(=O)NC)n3)cc2)cc1 (centres unmarked) [Compound 9, 2-((2-((4-(((4-(1-acryloylpyrrolidin-2-yl)phenyl)amino)methyl)phenyl)amino)-5-(trifluoromethyl)pyrimidin-4-yl)amino)-N-methylbenzamide] | – | inhibit the activated YAP (non-p-YAP) | – | 0.00371 µM | can inhibit the phosphorylation of FAK (p-FAK 397) | effect on cell morphology of DGC organoid [4]: significantly better effects than defactinib and IN-10018
C=CC(=O)N1CCCC(c2cccc(NCc3ccc(Nc4ncc(C(F)(F)F)c(Nc5ccccc5C(=O)NOC)n4)cc3)c2)C1 (centres unmarked) [Compound 11, 2-((2-((4-(((3-(1-acryloylpiperidin-3-yl)phenyl)amino)methyl)phenyl)amino)-5-(trifluoromethyl)pyrimidin-4-yl)amino)-N-methoxybenzamide] | – | inhibit the activated YAP (non-p-YAP) | 0.09 µM | 0.00567 µM | can inhibit the phosphorylation of FAK (p-FAK 397) | effect on cell morphology of DGC organoid [4]: significantly better effects than defactinib and IN-10018
C=CC(=O)N1CCCC(c2cccc(NCc3ccc(Nc4ncc(C(F)(F)F)c(Nc5cccc(F)c5C(=O)NC)n4)cc3)c2)C1 (centres unmarked) [Compound 13, 2-((2-((4-(((3-(1-acryloylpiperidin-3-yl)phenyl)amino)methyl)phenyl)amino)-5-(trifluoromethyl)pyrimidin-4-yl)amino)-6-fluoro-N-methylbenzamide] | – | inhibit the activated YAP (non-p-YAP) | – | 0.0198 µM | can inhibit the phosphorylation of FAK (p-FAK 397) | –
C=CC(=O)N1CCCC(c2cccc(NCc3ccc(Nc4ncc(C(F)(F)F)c(Nc5ccccc5S(=O)(=O)NC(C)C)n4)cc3)c2)C1 (centres unmarked) [Compound 19, 2-((2-((4-(((3-(1-acryloylpiperidin-3-yl)phenyl)amino)methyl)phenyl)amino)-5-(trifluoromethyl)pyrimidin-4-yl)amino)-N-isopropylbenzenesulfonamide] | 0.21 µM | – | 0.09 µM | 0.0104 µM | – | –
CNC(=O)c1ccc(Nc2ncc(C(F)(F)F)c(NCc3nccnc3N(C)S(C)(=O)=O)n2)cc1 [Defactinib, reference compound] | – | – | 1.37 µM | – | – | AUC(0-inf) [5]: 0.441 µM·h; AUC(0-t) [5]: 0.424 µM·h; Cmax [5]: 99.5 nM; Tmax [5]: 4 h; half-life [5]: 1.2 h; inhibition of YAP activity (non-p-YAP) (YAP (non-p-YAP)): no inhibiting effect on YAP activity
COc1cc(C(=O)NC2CCN(C)CC2)c(F)cc1Nc1ncc(C(F)(F)F)c(Oc2cccc3c2C(=O)N(C)C3)n1 [IN10018, reference compound] | 8.4 µM | – | 3.5 µM | – | – | inhibition of YAP activity (non-p-YAP) (YAP (non-p-YAP)): no inhibiting effect on YAP activity
